Measurements published in patent US9120994B2, “Terpene alcohols for use in fragrance compositions and perfumed products” (Givaudan S.A., priority 2011, dated 2015).

Assay: GC-odor threshold concentration (gas chromatograph with sniff port, panel of trained evaluators)
Conditions: for Odor threshold concentration (relative): GC sniff port, panel of trained evaluators, identical conditions, relative values (Ic = 1)
Protocol: Definition: The odour threshold concentration is defined as the lowest concentration of the vapour of an odourant material in the air which can be detected by smell and can be measured by standard methods known in the art. According to standard procedures known to the person skilled in the art, threshold concentrations for volatile perfumery compounds are determined on a gas chromatograph equipped with a sniff port by a panel of trained evaluators. The lowest concentration smelled by each panelist is recorded as the individual threshold concentration expressed in ng (absolute amount of compound delivered at the sniff port).

SMILES	Odor threshold concentration (relative)	odor threshold concentration, times lower than compound Ib (compared with [(1S*,2R*)-1-methyl-2-[(S*)-5-methylhex-4-en-2-yl]cyclopropyl]methanol (Ib))	odor threshold concentration, times lower than citronellol (compared with citronellol)	odor threshold concentration, times lower than geraniol (compared with geraniol)
CC(C)=CC[C@@H](C)[C@H]1C[C@]1(C)CO (relative stereo) [Compound Ic, [(1S*,2R*)-1-Methyl-2-[(R*)-5-methylhex-4-en-2-yl]cyclopropyl]methanol]	1	100 times	–	–
CC(C)=CCC(C)/C=C(\C)CO (stereo not shown) [Compound Ia, 2,4,7-Trimethylocta-2,6-dien-1-ol]	70	–	more than 2 times	more than 11 times
CC(C)=CCCC(C)CCO (stereo not shown) [Citronellol, 3,7-dimethyloct-6-enol, reference compound]	185	–	–	–
CC(C)=CC[C@H](C)[C@H]1C[C@]1(C)CO (relative stereo) [Compound Ib, [(1S*,2R*)-1-Methyl-2-[(S*)-5-methylhex-4-en-2-yl]cyclopropyl]methanol]	100	–	–	–
